In patent publication US20110046223A1, “TREATMENT OF NEUROFIBROMATOSIS” (RAMOT AT TEL-AVIV UNIVERSITY LTD., priority 2006, published 2011):

Experiments:
[1] = tested on: STS26T cells; experiment: cell growth, direct counting of cells, FTS dose-response; type: cell-based; conditions: Homo sapiens, STS-26T, 72 h, grown three days, FTS 12.5-100 μM, means±SD, n=4, read-out: estimated IC50, decrease in cell number
Method: (§1) The human NF-1 MPNST cell lines ST88-14, T265P21 and 90-8 and the non-NF-1 human MPNST cell line STS26T were obtained from Dr. Nancy Ratner. T265P21, 90-8, and ST88-14 cells were maintained in RPMI/15% fetal calf serum (FCS) medium and STS26T cells were maintained in DMEM/10% FCS, as described in Weisz, B., et al., supra. Cells were plated at a density of 1×10^6 cells per 10-cm plate for biochemical and immunoblotting assays, 2.5×10^3 cells/well in 24-well plates for cell-growth assays, or on glass cover slips (5×10^4 cells per 35-mm dish) for labeling of actin cytoskeletal elements. The cells were incubated for 24 hours, treated with the indicated concentration of FTS or with the vehicle (0.1% DMSO) (control) for the times specified in each of the experiments, and then subjected to the various assays as described below. The effect of FTS on cell growth was estimated by direct counting of cells collected from each well, as described in Weisz, B., et al., supra.
(§2) To determine the effects of the Ras inhibitor FTS on the growth rates of the NF-1 cell lines ST88-14, 90-8, T265P21 and the non-NF-1 STS26T cells, the cells were grown for two days in the absence and in the presence of 50 μM FTS, and then photomicrographed. […] Additionally, cells were grown for three days and then detached, collected, and counted as described in Methods to determine dose-dependent inhibition by FTS.

[2] = tested on: T265P21 cells; experiment: as above; type: cell-based; conditions: Homo sapiens, 72 h, grown three days, FTS 12.5-100 μM, means±SD, n=4, read-out: estimated IC50, decrease in cell number
Method: as §1, §2

[3] = tested on: 90-8 cells; experiment: as above; type: cell-based; conditions: Homo sapiens, 72 h, grown three days, FTS 12.5-100 μM, means±SD, n=4, read-out: estimated IC50, decrease in cell number
Method: as §1, §2

[4] = tested on: ST88-14 cells; experiment: as above; type: cell-based; conditions: Homo sapiens, 72 h, grown three days, FTS 12.5-100 μM, means±SD, n=4, read-out: estimated IC50, decrease in cell number
Method: as §1, §2

[5] = tested on: Ras, ERK, or Akt; experiment: total Ras, ERK, Akt in serum-stimulation experiment; type: cell-based, human; conditions: STS26T cells, serum-stimulation conditions
Method: Unless otherwise indicated, cells were lysed 48 hours after being treated with lysis buffer, as described in Haklai, et al., supra. […] Protein bands were visualized by ECL and quantified by densitometry with Image Master VDS-CL (Amersham) using TINA 2.0 software (Ray Tests). To obtain reliable comparisons between replicated experiments for statistical analysis, a standardization procedure was used, in which the density of each given protein band as recorded with its specific Ab, was normalized. […] The standard average density was defined as 1.0, and each of the individually determined bands was related to this value. […] Actin cytoskeletal elements were labeled with rhodamine-phalloidin, and digital fluorescence images were collected on a Zeiss LSM 510 confocal microscope fitted with fluorescein and rhodamine filters, as described in Gana-Weisz, M., et al., supra.
First, the time courses of serum-stimulated GTP loading of Ras and serum-stimulated activation of signals downstream of Ras were determined. […]

[6] = tested on: p120 RasGAP; experiment: p120 RasGAP amounts, immunoblot; type: cell-based, human; conditions: 75 μM FTS, 48 hours, NF-1 and non-NF-1 cells
Method: Unless otherwise indicated, cells were lysed 48 hours after being treated with lysis buffer, as described in Haklai, et al., supra. […] Protein bands were visualized by ECL and quantified by densitometry with Image Master VDS-CL (Amersham) using TINA 2.0 software (Ray Tests). To obtain reliable comparisons between replicated experiments for statistical analysis, a standardization procedure was used, in which the density of each given protein band as recorded with its specific Ab, was normalized. […] The standard average density was defined as 1.0, and each of the individually determined bands was related to this value. […] Actin cytoskeletal elements were labeled with rhodamine-phalloidin, and digital fluorescence images were collected on a Zeiss LSM 510 confocal microscope fitted with fluorescein and rhodamine filters, as described in Gana-Weisz, M., et al., supra. […]

CC(C)=CCC/C(C)=C/CC/C(C)=C/CSc1ccccc1C(=O)O [FTS, S-farnesylthiosalicylic acid] was tested, and the IC50 [1] was 53 ± 10 µM, the IC50 [2] was 35 ± 7 µM and the IC50 [3] was 42 ± 9 µM. For the same compound, the IC50 [4] was 42 ± 13 µM, the “total amounts of Ras, ERK, or Akt” value [5] was “no effect” and the “amounts of p120 RasGAP” value [6] was “no effect”.
